Where a name gives a salt, the structure may show the parent alone. Peptide text beside a SMILES is read from it.
Key:
pigs = experiment: growth assay, starter pig performance 0-21 days post-weaning; format: in vivo; details: for Daily gain: fed ad libitum
From the text: (§1) A trial of 180 (21±2 days of age) pigs was used in a growth assay to compare the effects of supplementing the pigs' diet with L-lysine^. HCl, 98% (78.5% lysine), and the dipeptide L-lysyl-glycine^. HCl (approximately 50% lysine) on starter pig performance and nitrogen utilization. Pigs were blocked (n=5) by initial weight (6.3 kg) and assigned to treatments according to ancestry and sex. Feed and water were available ad libitum for 21 days post-weaning (11.7 kg final weight). The control diets were formulated to include 0.9% and 1.1% lysine respectively, using a corn-soybean meal mixture containing 15% edible grade dried whey. Synthetic lysine^. HCl and the dipeptide lysyl-glycine were added to the control diets to form test diets containing 1.0% and 1.1% lysine and lysyl-glycine respectively. The following table sets forth each of the six diets used in this study.
(§2) Serum samples were obtained on days 7, 14, and 21 for analysis of urea nitrogen. Data were analyzed as a randomized complete block design and means were separated using Bonferroni pared t-tests. Single df contrasts were used to evaluate differences between the two lysine sources and levels. No differences in daily gain or daily feed intake were observed between treatments. In general, pigs consuming the 1.1% lysine corn-soybean meal control diet had higher urea nitrogen than the pigs consuming the reduced protein diets and those consuming the 1.1% lysine, lysyl-glycine supplemented diet had the lowest urea nitrogen. Pigs consuming the diets containing lysyl-glycine had lower urea nitrogen levels than pigs fed the lysine^. HCl diets on day 21. […] HCl as evidenced by the lower serum urea nitrogen levels on day 21.

[1] = serum urea nitrogen (nitrogen utilization) in starter pigs; format: in vivo; details: for d 7 urea N: day 7; for d 14 urea N: day 14
From the text: as §1, §2

[2] = serum, day 21, diet 1.0% lysine
[3] = serum, day 21, diet 1.1% lysine

Compound | Daily feed (pigs; diet 1.0% lysine) [g] | Gain/feed (pigs; diet 1.0% lysine) | Daily gain (pigs; diet 1.0% lysine) [g] | Daily feed (pigs; diet 1.1% lysine) [g] | Gain/feed (pigs; diet 1.1% lysine) | Daily gain (pigs; diet 1.1% lysine) [g] | d 7 urea N ([1]; serum, diet 1.0% lysine) [mg/dL] | d 7 urea N ([1]; serum, diet 1.1% lysine) [mg/dL] | d 14 urea N ([1]; serum, diet 1.0% lysine) [mg/dL] | d 14 urea N ([1]; serum, diet 1.1% lysine) [mg/dL] | d 21 urea N [1, 2] [mg/dL] | d 21 urea N [1, 3] [mg/dL] | amino acid utilization compared with lysine HCl ([1]; as evidenced by lower serum urea nitrogen on day 21) | urea nitrogen levels compared with pigs fed the lysine HCl diets ([1]; serum, day 21, P = 0.05) | urea nitrogen compared with the other diets ([1]; serum, 1.1% lysine, lysyl-glycine supplemented diet, in general)
NCCCC[C@H](N)C(=O)O [Lysine HCl, L-lysine^. HCl, reference compound] | 460 | 600 | 276 | 413 | 613 | 253 | 9.5 | 9.2 | 9.6 | 8.4 | 10.7 | 8.5 |  |  | 
NCCCC[C@H](N)C(=O)NCC(=O)O [Lysyl-glycine, L-lysyl-glycine^. HCl] (H-Lys-Gly-OH) | 395 | 547 | 218 | 432 | 643 | 280 | 9.7 | 8.5 | 8.9 | 8.6 | 9.1 | 7.9 | more efficiently utilized | lower | lowest
